The results in this text go back to publication PMC10692721, “Drug discovery for heart failure targeting myosin-binding protein C” (The Journal of Biological Chemistry, 2023).

In assay [1] the test system is FMAL-actin plus TMR-cC0-C2. Description: Selleck library HTS, 473 nm excitation (FLT of FMAL-actin with TMR-cC0-C2, FLT-FRET). The conditions noted are these: for 473-nm Δτ, Repeat 1 / 473-nm Δτ, Repeat 2: initial screen, 30 μM compound; for 473-nm z-score (based on avg Δτ): robust z-score, hit threshold ±4, 30 μM compound. The format is binding, human. The method, then: (§1) Fluorescence lifetime (FLT) measurements were acquired using a high-throughput FLT plate reader (Fluorescence Innovations, Inc) ([14], [27]), provided by Photonic Pharma LLC. […] The observed waveforms were analyzed as described previously ([15], [28]).
(§2) In total, 50 nl of each solution was dispensed in DMSO using an automated Echo 550 acoustic liquid dispenser (Labcyte). Compounds were formatted into the assay plates, at a final concentration of 30 μM, with the first two and second to last columns loaded with DMSO only (compound-free controls). In the final column, 30 μM of suramin was loaded as a positive control (tool compound). These assay plates were then heat-sealed using a PlateLoc Thermal Microplate Sealer (Agilent Technologies) and stored at −20 °C. Before screening, compound plates were equilibrated to room temperature (∼25 °C). […] Plates were incubated at room temperature for 60 min before recording the data with the fluorescence lifetime plate reader.
After fitting the waveforms with a single exponential decay to quantify donor FLT, the change in FLT (Δτ) was computed by performing a moving median subtraction in the order the plate was scanned with a window size of half a plate row […]. The reasons for this are twofold. Firstly, plate gradients are often observed due to the heating of the digitizer during acquisition.
To account for the necessity to correct for plate gradients in the computation of E, the median τDMSO prior to the application of the moving median correction was added to each well’s Δτ value to recover a rescaled value of τ.

In another assay the test system is TMR-cC0-C2. Description: Selleck library HTS, 532 nm excitation (FLT of TMR-cC0-C2 in presence of FMAL-actin). Type of assay: binding, human. Particulars: for 532-nm Δτ, Repeat 1 / 532-nm Δτ, Repeat 2: initial screen, 30 μM compound; for 532-nm z-score (based on avg Δτ): robust z-score, hit threshold ±4, 30 μM compound. The method, then: as §1, §2
Hits that exceeded the z-score hit criteria in the donor-only screen were excluded from consideration. To remove compounds with confounding fluorescence properties, a similarity index (SI, specifically the cosine distance, Equation 5) was computed using data from the SUPR instrument by comparing a region (500–540 nm) of the donor-only spectrum (I^(a)) for each well to that of the plate-wide average DMSO spectrum (I^(b)) in the same wavelength band ([29]). Compounds that exceeded an SI robust z-score of 4 were deemed likely fluorescent compounds and removed from consideration.(5) SI=1−∑Ii(a).Ii(b)/∑Ii(a).Ii(a)∑Ii(b).Ii(b)

In the case of `CC1(C)S[C@@H]2[C@H](NC(=O)[C@H](N)c3ccccc3)C(=O)N2[C@H]1C(=O)O` [Ampicillin sodium], in assay [1], the “473-nm Δτ, Repeat 1” value was 0.184 ns; the “473-nm Δτ, Repeat 2” value is given as 0.161 ns; the “473-nm z-score (based on avg Δτ)” value was found to be 9.70. Further, in the assay on TMR-cC0-C2, the “532-nm Δτ, Repeat 1” value worked out at 0.003 ns; the “532-nm Δτ, Repeat 2” value is reported as 0.007 ns; the “532-nm z-score (based on avg Δτ)” value is given as 0.34.
As to `CC1(C)[C@@H](O[C@H]2O[C@H](C(=O)O)[C@@H](O)[C@H](O)[C@H]2O[C@@H]2O[C@H](C(=O)O)[C@@H](O)[C@H](O)[C@H]2O)CC[C@]2(C)[C@H]3C(=O)C=C4[C@@H]5C[C@@](C)(C(=O)O)CC[C@]5(C)CC[C@@]4(C)[C@]3(C)CC[C@@H]12.N.N` [Diammonium glycyrrhizinate], in assay [1], the “473-nm Δτ, Repeat 1” value is on record as 0.077 ns; the “473-nm Δτ, Repeat 2” value amounted to 0.080 ns; the “473-nm z-score (based on avg Δτ)” value worked out at 4.42. Besides, in the assay on TMR-cC0-C2, the “532-nm Δτ, Repeat 1” value is given as 0.022 ns; the “532-nm Δτ, Repeat 2” value is listed as 0.017 ns; the “532-nm z-score (based on avg Δτ)” value is 1.22.
As to `COc1cc2nc(N3CCN(C(=O)C4COc5ccccc5O4)CC3)nc(N)c2cc1OC` (stereo not drawn) [Doxazosin], in assay [1], the “473-nm Δτ, Repeat 1” value was -0.266 ns; the “473-nm Δτ, Repeat 2” value is -0.231 ns; the “473-nm z-score (based on avg Δτ)” value is -13.87. In the assay with TMR-cC0-C2, the “532-nm Δτ, Repeat 1” value stood at 0.125 ns; the “532-nm Δτ, Repeat 2” value turned out to be 0.126 ns; the “532-nm z-score (based on avg Δτ)” value is 7.70.
Take `CC1=NN(c2ccc(C)c(C)c2)C(=O)/C1=N\Nc1cccc(-c2cccc(C(=O)O)c2)c1O` [Eltrombopag olamine]: in assay [1], the “473-nm Δτ, Repeat 1” value worked out at 0.270 ns; the “473-nm Δτ, Repeat 2” value turned out to be 0.162 ns; the “473-nm z-score (based on avg Δτ)” value turned out to be 12.13. In the assay on TMR-cC0-C2, the “532-nm Δτ, Repeat 1” value was -0.267 ns; the “532-nm Δτ, Repeat 2” value was -0.418 ns; the “532-nm z-score (based on avg Δτ)” value is -20.87.
`CCC(=O)c1c(O)cc(O)cc1O` [Flopropione]: in assay [1], the “473-nm Δτ, Repeat 1” value is -0.335 ns; the “473-nm Δτ, Repeat 2” value is given as -0.210 ns; the “473-nm z-score (based on avg Δτ)” value is -15.21. In the assay with TMR-cC0-C2, the “532-nm Δτ, Repeat 1” value is given as -0.062 ns; the “532-nm Δτ, Repeat 2” value is on record as -0.073 ns; the “532-nm z-score (based on avg Δτ)” value was -4.10.
As to `C[C@H](CCC(=O)O)[C@H]1CC[C@H]2[C@@H]3C[C@H](O)[C@@H]4C[C@H](O)CC[C@]4(C)[C@H]3CC[C@]12C` [Hyodeoxycholic acid (HDCA), Hyodeoxycholic acid], in assay [1], the “473-nm Δτ, Repeat 1” value stood at 0.111 ns; the “473-nm Δτ, Repeat 2” value stood at 0.072 ns; the “473-nm z-score (based on avg Δτ)” value was found to be 5.17. In the assay on TMR-cC0-C2, the “532-nm Δτ, Repeat 1” value is recorded as -0.021 ns; the “532-nm Δτ, Repeat 2” value is listed as -0.120 ns; the “532-nm z-score (based on avg Δτ)” value is listed as -4.27.
As to `CO[C@@]1(NC(=O)C(C(=O)O)c2ccc(O)cc2)C(=O)N2C(C(=O)O)=C(CSc3nnnn3C)CO[C@@H]21` (stereo partly drawn) [Latamoxef sodium], in assay [1], the “473-nm Δτ, Repeat 1” value is 0.128 ns; the “473-nm Δτ, Repeat 2” value was determined as 0.049 ns; the “473-nm z-score (based on avg Δτ)” value was 4.99. In addition, in the assay with TMR-cC0-C2, the “532-nm Δτ, Repeat 1” value is listed as -0.050 ns; the “532-nm Δτ, Repeat 2” value is on record as -0.037 ns; the “532-nm z-score (based on avg Δτ)” value is given as -2.62.
Take `O=c1cc(-c2ccc(O)c(O)c2)oc2cc(O)cc(O)c12` [Luteolin]: in assay [1], the “473-nm Δτ, Repeat 1” value is given as -0.309 ns; the “473-nm Δτ, Repeat 2” value is reported as -0.214 ns; the “473-nm z-score (based on avg Δτ)” value was -14.58. Further, in the assay on TMR-cC0-C2, the “532-nm Δτ, Repeat 1” value is reported as -0.277 ns; the “532-nm Δτ, Repeat 2” value was -0.302 ns; the “532-nm z-score (based on avg Δτ)” value is -17.63.
Regarding `Cc1ccc(NC(=O)c2ccc(CN3CCN(C)CC3)cc2)cc1Nc1nc(-c2cccnc2)cs1` [Masitinib (AB1010), Masitinib], in assay [1], the “473-nm Δτ, Repeat 1” value was -0.336 ns; the “473-nm Δτ, Repeat 2” value is -0.197 ns; the “473-nm z-score (based on avg Δτ)” value was -14.87. Moreover, in the assay with TMR-cC0-C2, the “532-nm Δτ, Repeat 1” value is -0.071 ns; the “532-nm Δτ, Repeat 2” value was -0.082 ns; the “532-nm z-score (based on avg Δτ)” value was -4.66.
As to `O=C(O)c1cc(/N=N/c2ccc(O)c(C(=O)O)c2)ccc1O` [Olsalazine Sodium], in assay [1], the “473-nm Δτ, Repeat 1” value stood at 0.202 ns; the “473-nm Δτ, Repeat 2” value turned out to be 0.096 ns; the “473-nm z-score (based on avg Δτ)” value is 8.38. Also, in the assay with TMR-cC0-C2, the “532-nm Δτ, Repeat 1” value is given as -0.057 ns; the “532-nm Δτ, Repeat 2” value is listed as -0.123 ns; the “532-nm z-score (based on avg Δτ)” value is recorded as -5.46.
As to `CN(C)[C@@H]1C(O)=C(C(N)=O)C(=O)[C@@]2(O)C(O)=C3C(=O)c4c(O)cccc4[C@@](C)(O)[C@H]3[C@H](O)[C@@H]12` [Oxytetracycline (Terramycin), Oxytetracycline], in assay [1], the “473-nm Δτ, Repeat 1” value amounted to 0.175 ns; the “473-nm Δτ, Repeat 2” value was 0.122 ns; the “473-nm z-score (based on avg Δτ)” value amounted to 8.34. Further, in the assay on TMR-cC0-C2, the “532-nm Δτ, Repeat 1” value is -0.019 ns; the “532-nm Δτ, Repeat 2” value is listed as -0.057 ns; the “532-nm z-score (based on avg Δτ)” value was -2.29.
`Nc1ccc2cc3ccc(N)cc3nc2c1` [Proflavine hemisulfate]: in assay [1], the “473-nm Δτ, Repeat 1” value was found to be 0.430 ns; the “473-nm Δτ, Repeat 2” value is reported as 0.337 ns; the “473-nm z-score (based on avg Δτ)” value came out at 21.48. In the assay on TMR-cC0-C2, the “532-nm Δτ, Repeat 1” value is -0.016 ns; the “532-nm Δτ, Repeat 2” value is listed as -0.080 ns; the “532-nm z-score (based on avg Δτ)” value is -2.91.
Turning to `C=CC1=C(C)c2cc3[nH]c(cc4nc(cc5[nH]c(cc1n2)c(C)c5CCC(=O)O)C(CCC(=O)O)=C4C)c(C)c3C=C` [Protoporphyrin IX], in assay [1], the “473-nm Δτ, Repeat 1” value is reported as 0.144 ns; the “473-nm Δτ, Repeat 2” value turned out to be 0.076 ns; the “473-nm z-score (based on avg Δτ)” value is 6.21. In addition, in the assay on TMR-cC0-C2, the “532-nm Δτ, Repeat 1” value stood at 0.067 ns; the “532-nm Δτ, Repeat 2” value turned out to be 0.016 ns; the “532-nm z-score (based on avg Δτ)” value is reported as 2.58.
In the case of `CN1CCCN=C1/C=C/c1cccs1` [Pyrantel pamoate], in assay [1], the “473-nm Δτ, Repeat 1” value was 0.313 ns; the “473-nm Δτ, Repeat 2” value was found to be 0.250 ns; the “473-nm z-score (based on avg Δτ)” value is 15.79. Also, in the assay on TMR-cC0-C2, the “532-nm Δτ, Repeat 1” value is reported as -0.043 ns; the “532-nm Δτ, Repeat 2” value was -0.100 ns; the “532-nm z-score (based on avg Δτ)” value is listed as -4.32.
On to `O=C(c1ccc(OCCN2CCCCC2)cc1)c1c(-c2ccc(O)cc2)sc2cc(O)ccc12` [Raloxifene], for which, in assay [1], the “473-nm Δτ, Repeat 1” value is reported as -0.490 ns; the “473-nm Δτ, Repeat 2” value is on record as -0.307 ns; the “473-nm z-score (based on avg Δτ)” value is listed as -22.27. In the assay on TMR-cC0-C2, the “532-nm Δτ, Repeat 1” value was -0.025 ns; the “532-nm Δτ, Repeat 2” value was -0.147 ns; the “532-nm z-score (based on avg Δτ)” value is -5.22.
As to `CNC(=O)c1cc(Oc2ccc(NC(=O)Nc3ccc(Cl)c(C(F)(F)F)c3)c(F)c2)ccn1` [Regorafenib (BAY 73-4506), Regorafenib], in assay [1], the “473-nm Δτ, Repeat 1” value was -0.029 ns; the “473-nm Δτ, Repeat 2” value is given as -0.026 ns; the “473-nm z-score (based on avg Δτ)” value is listed as -1.50. In addition, in the assay on TMR-cC0-C2, the “532-nm Δτ, Repeat 1” value is on record as 0.099 ns; the “532-nm Δτ, Repeat 2” value is on record as 0.102 ns; the “532-nm z-score (based on avg Δτ)” value is on record as 6.17.
